Target: T1, S proteins of wild-type SARS-CoV-2 virus and the SARS-CoV-2 D614G, B.1.1.7, B.1.351, P1, B.1.617, B.1.617.1, B.1.617.2, and B.1.617.3 variants (Homo sapiens, UniProt Q9BYF1)
T1 construct: purchased Sino Biological Inc. (Mainland China)
Assay type: binding
Details: FIG. 10; for ACE2 binding to the S protein: SARS-CoV-2 B.1.617.3 variant (excepted from the dose-dependent decrease); for ACE2 binding to the S proteins: wild-type and D614G, B.1.1.7, B.1.351, P1, B.1.617, B.1.617.1, B.1.617.2 variants

T1 sequence (Q9BYF1 18-740, stated change not applied): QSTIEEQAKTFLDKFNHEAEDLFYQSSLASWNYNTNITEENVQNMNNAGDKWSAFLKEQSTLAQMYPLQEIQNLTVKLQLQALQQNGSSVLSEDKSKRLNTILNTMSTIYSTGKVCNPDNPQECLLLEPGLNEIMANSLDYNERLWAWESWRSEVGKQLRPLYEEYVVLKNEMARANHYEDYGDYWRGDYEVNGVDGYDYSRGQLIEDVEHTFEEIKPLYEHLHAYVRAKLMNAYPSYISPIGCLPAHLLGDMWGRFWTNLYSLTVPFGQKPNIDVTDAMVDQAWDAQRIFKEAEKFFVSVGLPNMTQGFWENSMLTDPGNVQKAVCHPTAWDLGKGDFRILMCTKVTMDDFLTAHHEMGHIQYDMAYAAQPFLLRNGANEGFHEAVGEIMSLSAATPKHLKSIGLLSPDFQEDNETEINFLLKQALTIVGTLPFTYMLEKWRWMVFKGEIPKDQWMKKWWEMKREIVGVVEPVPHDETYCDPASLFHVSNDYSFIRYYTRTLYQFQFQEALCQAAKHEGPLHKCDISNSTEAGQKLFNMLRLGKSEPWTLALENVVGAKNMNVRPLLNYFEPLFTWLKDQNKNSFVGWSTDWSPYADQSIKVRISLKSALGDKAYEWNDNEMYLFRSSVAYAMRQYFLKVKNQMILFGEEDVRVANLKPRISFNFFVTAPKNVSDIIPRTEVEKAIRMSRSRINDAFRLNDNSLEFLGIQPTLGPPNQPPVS

| Structure (SMILES) | ACE2 binding to the S protein | ACE2 binding to the S proteins |
| --- | --- | --- |
| CCC[C@H](N[C@@H](C)C(=O)N1[C@H](C(=O)O)C[C@@H]2CCCC[C@@H]21)C(=O)OCC [Perindopril] | except for the SARS-CoV-2 B.1.617.3 variant | dose-dependently decrease |
| CCOC(=O)[C@H](CCc1ccccc1)N[C@@H](C)C(=O)N1[C@H](C(=O)O)C[C@@H]2CCC[C@@H]21 [Ramipril] | except for the SARS-CoV-2 B.1.617.3 variant | dose-dependently decrease |

— patent US20230266309A1, “PROTEIN MICROARRAY, USE AND DETECTION METHOD THEREOF” (NATIONAL CHENG KUNG UNIVERSITY, priority 2021, published 2023)
